Source: patent publication US20250059581A1, “METHOD OF BACTERIAL IDENTIFICATION AND TESTING OF BACTERIUM RESISTANT TO ONE OR MORE ANTIBIOTICS” (Nanyang Technological University, priority 2021, published 2025)

Assays:
SA 29213 [1] = test: MILab-ELISA assay; assay type: cell-based, S. aureus; conditions: penicillin G 16 μg/mL
MRSA BAA38 = test: MILab-microarray assay; assay type: cell-based, S. aureus
[2] = test system: drug-resistant (BAA40) S. aureus; test: MILab-based MiChip (SERS) assay; assay type: cell-based
BAA39 [3] = test: MILab-ELISA assay; assay type: cell-based, S. aureus; conditions: penicillin G 16 μg/mL
[4] = test system: methicillin-resistant S. aureus (MRSA BAA39); test: Metabolic labelling (D-Ala-N3 / DBCO-AF488) fluorescence under penicillin G treatment; assay type: cell-based
[5] = test system: methicillin-susceptible S. aureus (SA 29213); test: as above; assay type: cell-based
S. aureus 29213 = test: Flow cytometry of metabolic labelling under penicillin G; assay type: cell-based; conditions: penicillin G 0-128 μg/mL, 3 h, vs untreated controls
MRSA BAA39 = test: as above; assay type: cell-based, S. aureus; conditions: penicillin G up to 128 μg/mL, 3 h
[6] = test system: drug-susceptible (SA 29213) S. aureus; test: MILab-based MiChip (SERS) assay; assay type: cell-based
BAA39 [7] = test: MILab-LFA assay; assay type: cell-based, S. aureus
SA 29213 [8] = test: MILab-microarray assay; assay type: cell-based, S. aureus
SA 29213 [9] = test: MILab-LFA assay; assay type: cell-based, S. aureus
[10] = penicillin G 16 μg/mL, 15 min to 4 hours
[11] = penicillin G 16 μg/mL, 1×10^4 CFU/mL

## CC1(C)S[C@@H]2[C@H](NC(=O)Cc3ccccc3)C(=O)N2[C@H]1C(=O)[O-].[Na+] [penicillin G, Penicillin G sodium]
SA 29213 [1]
  metabolism of bacteria (MILab-ELISA OD 650 nm): completely inhibit the metabolism
MRSA BAA38; Penicillin G 0 to 32 μg/mL, 2 hours
  microarray fluorescence signal at increasing drug concentration: maintained significant signal
MRSA BAA38; [10]
  microarray fluorescence signal over drug treatment time: increased with increasing penicillin G treatment time
[2]; dose-dependence test, resistant S. aureus
  concentration at which weak Raman signals are generated: 128 µg/mL
[2]; [11]
  Raman (SERS) signal over incubation time: distinct Raman signal as short as 30 min
BAA39 [3]
  metabolism of bacteria (MILab-ELISA OD 650 nm): high metabolic activity
[4]; penicillin G 16 μg/mL, 0.5 to 5 h, resistant MRSA BAA39
  fluorescence intensity of metabolic labelling over incubation time: increased quickly with increasing incubation time
[4]; penicillin G 16 μg/mL, resistant strains
  metabolic labelling of single bacteria (confocal imaging): selective labelling
[4]; penicillin G 2-128 μg/mL, resistant bacteria
  fluorescence intensity of metabolic labelling at varying antibiotic concentration: much stronger fluorescence intensity
[5]; penicillin G 16 μg/mL, 0.5 to 5 h, susceptible SA 29213
  fluorescence intensity of metabolic labelling over incubation time: kept constraint
[5]; penicillin G 16 μg/mL, susceptible strains
  metabolic labelling of single bacteria (confocal imaging): negligible labelling
[5]; penicillin G 2-128 μg/mL, susceptible bacteria
  fluorescence intensity of metabolic labelling at varying antibiotic concentration: completely inhibit the metabolic labelling
S. aureus 29213
  labelling degree of individual bacteria (flow cytometry): considerably reduced labelling
MRSA BAA39
  labelling degree of individual bacteria (flow cytometry): maintained significant labelling
[6]; dose-dependence test, susceptible S. aureus
  concentration at which weak Raman signals are generated: 8 µg/mL
[6]; [11]
  Raman (SERS) signal over incubation time: negligible signals all the time
BAA39 [7]; penicillin G, up to 4 hours
  MILab-LFA signal over drug treatment (incubation) time: showed signal after 30 min
BAA39 [7]; resistant bacteria BAA39
  concentration that completely inhibits the bacteria (MILab-LFA test line): 64 µg/mL
SA 29213 [8]; Penicillin G 0 to 32 μg/mL, 2 hours, vs untreated controls
  microarray fluorescence signal at increasing drug concentration: considerably reduced signal
SA 29213 [8]; [10]
  microarray fluorescence signal over drug treatment time: negligible signal even at 4 hours
SA 29213 [9]; penicillin G, up to 4 hours
  MILab-LFA signal over drug treatment (incubation) time: no signal even after 4 hours
SA 29213 [9]; susceptible bacteria SA 29213
  concentration that completely inhibits the bacteria (MILab-LFA test line): 4 µg/mL
